Measurements reported in patent US8063062B2, “Compounds with a combination of cannabinoid-CB1 antagonism and acetylcholinesterase inhibition” (Solvay Pharmaceuticals B.V., priority 2006, dated 2011).
Read-outs that look alike come from different tables or passages of the source.

Columns and labels:
[1] = target: T1, acetylcholinesterase (Homo sapiens, UniProt P22303)
[2] = target: T1, acetylcholinesterase; assay: biochemical
[3] = target: human cannabinoid CB1 receptor (Homo sapiens, UniProt P21554); assay: biochemical
human cannabinoid CB1 receptor, sequence (P21554 whole entry): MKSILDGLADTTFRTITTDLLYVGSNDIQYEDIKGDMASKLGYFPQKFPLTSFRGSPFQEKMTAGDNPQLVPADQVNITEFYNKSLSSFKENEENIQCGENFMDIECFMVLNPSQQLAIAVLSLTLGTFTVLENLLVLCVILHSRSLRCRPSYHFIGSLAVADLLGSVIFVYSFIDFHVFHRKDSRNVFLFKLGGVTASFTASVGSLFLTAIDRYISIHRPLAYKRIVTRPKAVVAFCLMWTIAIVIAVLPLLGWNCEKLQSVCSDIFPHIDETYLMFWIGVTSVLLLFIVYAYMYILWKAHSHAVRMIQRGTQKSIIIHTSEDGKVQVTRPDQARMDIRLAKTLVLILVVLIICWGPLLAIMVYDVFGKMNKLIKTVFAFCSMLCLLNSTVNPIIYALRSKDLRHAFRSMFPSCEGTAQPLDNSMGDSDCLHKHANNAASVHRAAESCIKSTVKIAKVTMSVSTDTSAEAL
Description: After incubation of a freshly prepared cell membrane preparation with the [^3H]-ligand, with or without addition of compounds of the invention, separation of bound and free ligand was performed by filtration over glass fiber filters. Radioactivity on the filter was measured by liquid scintillation counting.

T1 sequence (P22303 32-614): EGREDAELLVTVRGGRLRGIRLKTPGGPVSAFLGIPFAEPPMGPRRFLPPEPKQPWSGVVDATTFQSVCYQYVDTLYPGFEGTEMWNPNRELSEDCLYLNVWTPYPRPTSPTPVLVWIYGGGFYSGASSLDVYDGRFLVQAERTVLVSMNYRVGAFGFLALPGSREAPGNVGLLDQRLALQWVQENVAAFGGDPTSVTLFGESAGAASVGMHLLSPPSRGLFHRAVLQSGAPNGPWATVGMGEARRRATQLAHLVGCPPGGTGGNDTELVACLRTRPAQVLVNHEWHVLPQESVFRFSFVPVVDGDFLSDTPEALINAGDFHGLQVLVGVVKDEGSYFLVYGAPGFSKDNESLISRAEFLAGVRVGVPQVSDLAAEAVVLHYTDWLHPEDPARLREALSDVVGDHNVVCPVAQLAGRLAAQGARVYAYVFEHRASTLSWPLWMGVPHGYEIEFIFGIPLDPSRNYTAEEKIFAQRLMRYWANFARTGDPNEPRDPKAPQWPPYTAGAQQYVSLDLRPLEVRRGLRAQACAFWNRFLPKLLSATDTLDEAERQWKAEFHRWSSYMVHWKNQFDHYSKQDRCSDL

## Cc1c(C(=O)NN2CCCCC2)nn(-c2ccc(Cl)cc2Cl)c1-c1ccc(Cl)cc1 [rimonabant]
[1]
  IC50: 25.1 µM

## CN=C(NS(=O)(=O)c1ccc(Cl)cc1)N1C[C@H](c2ccccc2)C(c2ccc(Cl)cc2)=N1 [SLV319]
[2]
  IC50: 6.31 µM

## O=S(=O)(/N=C(/NCCCCNc1c2c(nc3ccccc13)CCCC2)N1CC(c2ccccc2)C(c2ccc(Cl)cc2)=N1)c1ccc(Cl)cc1 (stereo not shown) [compound 2, 4-chloro-N-{[3-(4-chlorophenyl)-4-phenyl-4,5-dihydro-1H-pyrazolyl]-[7-(1,2,3,4-tetrahydroacridin-9-yl-amino)butylamino]methylene}benzene sulfonamide]
[1]
  IC50: 2.51 µM
[3]
  Ki: 0.0398 µM
